System: human hepatoma Huh-7 cell line harboring a HCV replicon
Test: HCV replicon assay (inhibition of viral replication, luciferase readout)
Type: cell-based
Settings: Hepatitis C virus, 72 h, Huh-7 HCV replicon cells, 3 days incubation
How it was run: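 Huh-7 replicon cells were exposed to 10-point 3-fold compound dilutions (0.44% DMSO) for 3 days at 37 °C. Replicon replication was read by Dual-Glo luciferase, with background from protease-inhibitor wells subtracted, and viability by calcein AM. EC50/CC50 came from a Hill-equation fit versus DMSO controls.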

Row | SMILES | inhibition at 2 µM
1 | Cc1nc(S(=O)(=O)N2CC[C@H](N(c3cc(C#CC(C)(C)C)sc3C(=O)O)C(=O)[C@H]3CC[C@H](C)CC3)C2)cn1C [Compound 212, 5-(3,3-Dimethyl-but-1-ynyl)-3-[[1-(1,2-dimethyl-1H-imidazole-4-sulfonyl)-pyrrolidin-3-yl]-(4-methyl-cyclohexanecarbonyl)-amino]-thiophene-2-carboxylic acid] | 99.3%
2 | CC(C)(C)C#Cc1cc(N(C(=O)[C@H]2CC[C@H](C)CC2)[C@H]2CCN(S(=O)(=O)c3cccs3)C2)c(C(=O)O)s1 [Compound 213, 5-(3,3-Dimethyl-but-1-ynyl)-3-{(4-methyl-cyclohexanecarbonyl)-[1-(thiophene-2-sulfonyl)-pyrrolidin-3-yl]-amino}-thiophene-2-carboxylic acid] | 99.9%
3 | CC(C)(C)C#Cc1cc(N(C(=O)[C@H]2CC[C@H](C)CC2)[C@H]2CCN(S(=O)(=O)c3cnc(=O)[nH]c3)C2)c(C(=O)O)s1 [Compound 214, 5-(3,3-Dimethyl-but-1-ynyl)-3-{(4-methyl-cyclohexanecarbonyl)-[1-(2-oxo-1,2-dihydro-pyrimidine-5-sulfonyl)-pyrrolidin-3-yl]-amino}-thiophene-2-carboxylic acid] | 69.9%
4 | CC(C)(C)C#Cc1cc(N(C(=O)[C@H]2CC[C@H](C)CC2)[C@H]2CCN(S(=O)(=O)c3ccccn3)C2)c(C(=O)O)s1 [Compound 215, 5-(3,3-Dimethyl-but-1-ynyl)-3-{(4-methyl-cyclohexanecarbonyl)-[1-(pyridine-2-sulfonyl)-pyrrolidin-3-yl]-amino}-thiophene-2-carboxylic acid] | 100%
5 | CC(C)(C)C#Cc1cc(N(C(=O)[C@H]2CC[C@H](C)CC2)[C@H]2CCN(S(=O)(=O)c3cccnc3)C2)c(C(=O)O)s1 [Compound 216, 5-(3,3-Dimethyl-but-1-ynyl)-3-{(4-methyl-cyclohexanecarbonyl)-[1-(pyridine-3-sulfonyl)-pyrrolidin-3-yl]-amino}-thiophene-2-carboxylic acid] | 100%
6 | CC(C)(C)C#Cc1cc(N(C(=O)[C@H]2CC[C@H](C)CC2)[C@H]2CC[C@@H](OC3CCOCC3)CC2)c(C(=O)O)s1 [Compound 219, 5-(3,3-dimethylbut-1-ynyl)-3-((1r,4R)-4-methyl-N-((1r,4R)-4-(tetrahydro-2H-pyran-4-yloxy)cyclohexyl)cyclohexanecarboxamido)thiophene-2-carboxylic acid] | 100%
7 | CC(C)(C)C#Cc1cc(N(C(=O)[C@H]2CC[C@H](C)CC2)C2CCC(O[C@@H]3CO[C@H]4OCC[C@H]43)CC2)c(C(=O)O)s1 (stereo partly drawn) [Compound 221, 5-(3,3-dimethylbut-1-ynyl)-3-((1r,4R)-4-methyl-N-(4-((3S,3aS,6aR)-tetrahydro-2H-furo[2,3-b]furan-3-yloxy)cyclohexyl)cyclohexanecarboxamido)thiophene-2-carboxylic acid] | 100%
8 | CC(C)(C)C#Cc1cc(N(C(=O)[C@H]2CC[C@H](C)CC2)[C@H]2CC[C@H](OC3CCN(C(=O)OC(C)(C)C)CC3)CC2)c(C(=O)O)s1 [Compound 222, 3-(N-(4-(1-(tert-butoxycarbonyl)piperidin-4-yloxy)cyclohexyl)-4-methylcyclohexanecarboxamido)-5-(3,3-dimethylbut-1-ynyl)thiophene-2-carboxylic acid] | 97.7%
9 | CC(C)(C)C#Cc1cc(N(C(=O)[C@H]2CC[C@H](C)CC2)[C@H]2CC[C@H](OC3CCNCC3)CC2)c(C(=O)O)s1 [Compound 223, 5-(3,3-dimethylbut-1-ynyl)-3-(4-methyl-N-(4-(piperidin-4-yloxy)cyclohexyl)cyclohexanecarboxamido)thiophene-2-carboxylic acid] | 100%
10 | CC(C)(C)C#Cc1cc(N(C(=O)[C@H]2CC[C@H](C)CC2)[C@H]2CC[C@H](OC3CCOC3)CC2)c(C(=O)O)s1 (stereo partly drawn) [Compound 224, 5-(3,3-dimethylbut-1-ynyl)-3-(4-methyl-N-(4-(tetrahydrofuran-3-yloxy)cyclohexyl)cyclohexanecarboxamido)thiophene-2-carboxylic acid] | 99.9%
11 | CC(C)(C)C#Cc1cc(N(C(=O)[C@H]2CC[C@H](C)CC2)[C@H]2CC[C@H](O[C@H]3CCN(C(=O)OC(C)(C)C)C3)CC2)c(C(=O)O)s1 [Compound 225] | 98.4%
12 | CC(C)(C)C#Cc1cc(N(C(=O)[C@H]2CC[C@H](C)CC2)[C@H]2CC[C@H](O[C@H]3CCNC3)CC2)c(C(=O)O)s1 [Compound 226, 5-(3,3-dimethylbut-1-ynyl)-3-(4-methyl-N-(4-((S)-pyrrolidin-3-yloxy)cyclohexyl)cyclohexanecarboxamido)thiophene-2-carboxylic acid] | 99.9%
13 | C[C@@H]1CC[C@@H](C(=O)N(c2cc(C#CC(C)(C)C)sc2C(=O)O)[C@H]2CC[C@H](OC3CCOC3)CC2)[C@@H](O)C1 (stereo partly drawn) [Compound 227] | 100%
14 | C[C@H]1CC[C@H](C(=O)N(c2cc(C#CC3CC3)sc2C(=O)O)[C@H]2CC[C@H](Oc3ccccn3)CC2)CC1 [Compound 229, 5-(2-cyclopropylethynyl)-3-(4-methyl-N-(4-(pyridin-2-yloxy)cyclohexyl)cyclohexanecarboxamido)thiophene-2-carboxylic acid] | 82.6%
15 | CC(C)(C)C#Cc1cc(N(C(=O)[C@H]2CC[C@H](C)CC2)[C@H]2CC[C@H](O[C@@H]3CCN(C(=O)OC(C)(C)C)C3)CC2)c(C(=O)O)s1 [Compound 230, 3-(N-(4-((R)-1-(tert-butoxycarbonyl)pyrrolidin-3-yloxy)cyclohexyl)-4-methylcyclohexanecarboxamido)-5-(3,3-dimethylbut-1-ynyl)thiophene-2-carboxylic acid] | 98.4%
16 | CC(C)(C)C#Cc1cc(N(C(=O)[C@H]2CC[C@H](C)CC2)[C@H]2CC[C@H](O[C@@H]3CCNC3)CC2)c(C(=O)O)s1 [Compound 231, 5-(3,3-dimethylbut-1-ynyl)-3-(4-methyl-N-(4-((R)-pyrrolidin-3-yloxy)cyclohexyl)cyclohexanecarboxamido)thiophene-2-carboxylic acid] | 99.9%
17 | CC1=CCC(C(=O)N(c2cc(C#CC(C)(C)C)sc2C(=O)O)[C@H]2CC[C@H](O[C@H]3CCOC3)CC2)[C@@H](C)C1 (stereo partly drawn) [Compound 301, 5-(3,3-dimethyl-but-1-ynyl)-3-{(4,6S-dimethyl-cyclohex-3-enecarbonyl)-[4-(tetrahydro-furan-3S-yloxy)-trans-cyclohexyl]-amino}-thiophene-2-carboxylic acid] | 99.8%
18 | CC1=CCC(C(=O)N(c2cc(C#CC(C)(C)C)sc2C(=O)O)[C@H]2CC[C@H](O[C@H]3CCOC3)CC2)[C@H](C)C1 (stereo partly drawn) [Compound 304, 5-(3,3-dimethyl-but-1-ynyl)-3-{(4,6R-dimethyl-cyclohex-3-enecarbonyl)-[4-(tetrahydro-furan-3S-yloxy)-trans-cyclohexyl]-amino}-thiophene-2-carboxylic acid] | 100%
19 | C[C@@H]1CC[C@@H](C(=O)N(c2cc(C#CC(C)(C)C)sc2C(=O)O)[C@H]2CC[C@H](O[C@H]3CCOC3)CC2)[C@@H](O)C1 [Compound 309, 5-(3,3-dimethylbut-1-ynyl)-3-((1R,2S,4R)-2-hydroxy-4-methyl-N-(4-(tetrahydrofuran-3S-yloxy)cyclohexyl)cyclohexanecarboxamido)thiophene-2-carboxylic acid] | 100%
20 | C[C@@H]1CC[C@@H](C(=O)N(c2cc(C#CC(C)(C)C)sc2C(=O)O)[C@H]2CC[C@H](O[C@@H]3CCOC3)CC2)[C@@H](O)C1 [Compound 310, 5-(3,3-dimethylbut-1-ynyl)-3-((1R,2S,4R)-2-hydroxy-4-methyl-N-(4-(tetrahydrofuran-3R-yloxy)cyclohexyl)cyclohexanecarboxamido)thiophene-2-carboxylic acid] | 100%
21 | CC1CCC(C(=O)N(c2cc(C#CC(C)(C)COC3CCCCO3)sc2C(=O)O)C2CCC(Oc3ccccn3)CC2)CC1 (stereo not drawn) [Compound 311, 5-[3,3-Dimethyl-4-(tetrahydro-pyran-2-yloxy)-but-1-ynyl]-3-{(4-methyl-cyclohexanecarbonyl)-[4-(pyridin-2-yloxy)-cyclohexyl]-amino}-thiophene-2-carboxylic acid] | 95.2%
22 | CC(C)(C#Cc1cc(N(C(=O)[C@H]2CC[C@H](C)CC2)[C@H]2CC[C@H](OC3CCOC3)CC2)c(C(=O)O)s1)CCO (stereo partly drawn) [Compound 314, 5-(5-Hydroxy-3,3-dimethyl-pent-1-ynyl)-3-{(4-methyl-cyclohexanecarbonyl)-[4-(tetrahydro-furan-3-yloxy)-cyclohexyl]-amino}-thiophene-2-carboxylic acid] | 99.9%
23 | CC(C)(C)C#Cc1cc(N(C(=O)[C@H]2CC[C@H](C)CC2)[C@H]2CC[C@H](O[C@H]3COC[C@H]3O)CC2)c(C(=O)O)s1 [Compound 317, 5-(3,3-dimethyl-but-1-ynyl)-3-[[4-(4-cis-hydroxy-tetrahydro-furan-3-yloxy)-cyclohexyl]-(4-methyl-cyclohexanecarbonyl)-amino]-thiophene-2-carboxylic acid] | 100%
24 | CC(C)(C)C#Cc1cc(N(C(=O)[C@H]2CC[C@H](C)CC2)[C@H]2CC[C@H](O[C@H]3COC[C@@H]3O)CC2)c(C(=O)O)s1 [Compound 318, 5-(3,3-Dimethyl-but-1-ynyl)-3-[[4-(4-trans-hydroxy-tetrahydro-furan-3-yloxy)-cyclohexyl]-(4-methyl-cyclohexanecarbonyl)-amino]-thiophene-2-carboxylic acid] | 99.7%
25 | CC1CCC(C(=O)N(c2cc(C#CC(C)(C)C)sc2C(=O)O)[C@H]2CCN(CCOc3ccccn3)C2)CC1 (stereo partly drawn) [Compound 321] | 99.9%
26 | CC(C)(C)C#Cc1cc(N(C(=O)[C@H]2CC[C@H](C)CC2)[C@H]2CC[C@H](O[C@@H]3CCOC3)CC2)c(C(=O)O)s1 [Compound 322] | 100%
27 | C=C1CCC(C(=O)N(c2cc(C#CC(C)(C)C)sc2C(=O)O)[C@H]2CC[C@H](Oc3cc(CN(C)C)ccn3)CC2)CC1 [Compound 325, 3-[[4-(4-dimethylaminomethyl-pyridin-2-yloxy)-cyclohexyl]-(4-methylene-cyclohexanecarbonyl)-amino]-5-(3,3-dimethyl-but-1-ynyl)-thiophene-2-carboxylic acid] | 100%
